Measurements published in PMC9416150, “Development and Validation of [^3H]OF-NB1 for Preclinical Assessment of GluN1/2B Candidate Drugs” (Pharmaceuticals, 2022).
Like-named read-outs stand apart in the source and are kept apart here.

What was measured:
GluN1/2B [1] = target: T1, GluN1/2B (Rattus norvegicus, UniProt P35439+Q00960); assay: In vitro GluN1/2B competitive binding assay with [3H]OF-NB1; settings: radioligand [3H]OF-NB1; Wistar rat brain homogenates; 25 °C
T1 construct: from tissue; host or cells: Wistar rat whole brain homogenate
Procedure: (§1) Competitive binding assays were performed as previously reported. […] A dilution series of the test ligands was prepared ranging from 30 µM to 300 pM. […] Each measurement vial contained 0.5 mg/mL of brain homogenate proteins, 20 µL of cold ligand, 10 µL of radioligand and was diluted to 200 µL with HEPES buffer. The vials were incubated at 25 °C and 110 rpm for 1 h. The mixtures were quenched with buffer and filtered through Whatman® GF/C 25 mm filters soaked with 0.05% PEI solution. Filters were washed twice with cold buffer and placed in scintillation vials. Scintillation vials were filled with 2 mL Ultima Gold^TM LSC cocktail and measured in a Beckmann LS6500 liquid scintillator counter.

GluN1/2B [2] = target: T1, GluN1/2B; assay: In vitro GluN1/2B competitive binding assay with [3H]ifenprodil; settings: radioligand [3H]ifenprodil; Wistar rat brain homogenates; 25 °C
Procedure: as §1

σ1R [3] = target: T2, σ1R (Rattus norvegicus, UniProt Q9R0C9); settings: Wistar rats; for %RO calculated / %RO predicted: σ1R occupancy, [18F]fluspidine
Procedure: A series of doses were investigated, ranging from 0.05–15 mg/kg. […] There have been efforts to develop ligands with dual GluN1/2B and σ1R activity. Nonetheless, for the purpose of developing selective GluN1/2B ligands, one has to consider fundamentally reformulating the development strategy.
All non-aqueous reactions were performed under N2 atmosphere using flame-dried glassware and standard syringe/septa methods unless stated otherwise. Reactions were magnetically stirred and further monitored by thin layer chromatography (TLC) performed on Merck TLC aluminum sheets (silica gel 60 F254). TLC spots were visualized using UV light (λ = 254 nm) or through staining with KMnO4 solution. Chromatographic purification of products was performed using SiliaFlash P60 silica gel (Silicycle) for preparative column chromatography with a particle size of 40–63 μm (230–400 mesh). Reactions at −78 °C were cooled in a dry ice/acetone bath and reactions at 0 °C were cooled in an ice/water bath. Chemicals were purchased from ABCR, Acros Organics, Amatek Chemical, Fluorochem, Merck, Perkin Elmer and Sigma Aldrich and used without further purification. Solvents for TLC, extraction and flash column chromatography were of technical grade. Extra dry solvents for all non-aqueous reactions were supplied by Acros Organics (puriss., dried over molecular sieves, water content <0.005%). Deuterated solvents (D, 99.9%) were purchased from Cambridge Isotope Laboratories, Inc. NMR spectra of compounds 3, 7 and 8 are presented in the Supplementary Material (Section S1). Tritium labeling was performed by RC Tritec AG (Teufen, Switzerland). […] Positron emission tomography (PET) imaging was performed in Wistar rats according to a previously published procedure.
Standard uptake values (SUVs) are averaged from 0–90 min.

GluN1/2B [4] = settings: cited from earlier work
σR = settings: read-out: Ki (σ1R); published value using the σR ligand [3H]3-PPP; cited from earlier work
GluN1/2B [5] = settings: cited from earlier work; remark: listed apart in the source
σ1R [6] = target: T2, σ1R; assay: In vitro σ1R competitive binding assay with (+)-[3H]pentazocine; set-up: from tissue; host or cells: brain of living Wistar rats (in vivo PET); settings: radioligand (+)-[3H]pentazocine; Wistar rat brain homogenates; 37 °C
Text: The mixtures were quenched with buffer and filtered through Whatman® GF/C 25 mm filters soaked with 0.05% PEI solution.

σ1R [7] = settings: cited from earlier work
[8] = set-up: method as in PMID 35710735; settings: n = 4; cited from earlier work
σ2R = target: σ2R; set-up: method as in earlier work; settings: ref 18 (Hashimoto 2015); cited from earlier work

T2 sequence (Q9R0C9 whole entry): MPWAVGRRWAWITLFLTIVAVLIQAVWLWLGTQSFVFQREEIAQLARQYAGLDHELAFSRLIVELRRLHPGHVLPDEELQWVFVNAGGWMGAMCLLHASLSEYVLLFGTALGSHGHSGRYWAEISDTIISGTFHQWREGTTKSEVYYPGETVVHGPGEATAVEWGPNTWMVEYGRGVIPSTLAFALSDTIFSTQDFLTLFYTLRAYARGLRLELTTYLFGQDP
T1 sequence (Q00960 27-1482, other chains not shown): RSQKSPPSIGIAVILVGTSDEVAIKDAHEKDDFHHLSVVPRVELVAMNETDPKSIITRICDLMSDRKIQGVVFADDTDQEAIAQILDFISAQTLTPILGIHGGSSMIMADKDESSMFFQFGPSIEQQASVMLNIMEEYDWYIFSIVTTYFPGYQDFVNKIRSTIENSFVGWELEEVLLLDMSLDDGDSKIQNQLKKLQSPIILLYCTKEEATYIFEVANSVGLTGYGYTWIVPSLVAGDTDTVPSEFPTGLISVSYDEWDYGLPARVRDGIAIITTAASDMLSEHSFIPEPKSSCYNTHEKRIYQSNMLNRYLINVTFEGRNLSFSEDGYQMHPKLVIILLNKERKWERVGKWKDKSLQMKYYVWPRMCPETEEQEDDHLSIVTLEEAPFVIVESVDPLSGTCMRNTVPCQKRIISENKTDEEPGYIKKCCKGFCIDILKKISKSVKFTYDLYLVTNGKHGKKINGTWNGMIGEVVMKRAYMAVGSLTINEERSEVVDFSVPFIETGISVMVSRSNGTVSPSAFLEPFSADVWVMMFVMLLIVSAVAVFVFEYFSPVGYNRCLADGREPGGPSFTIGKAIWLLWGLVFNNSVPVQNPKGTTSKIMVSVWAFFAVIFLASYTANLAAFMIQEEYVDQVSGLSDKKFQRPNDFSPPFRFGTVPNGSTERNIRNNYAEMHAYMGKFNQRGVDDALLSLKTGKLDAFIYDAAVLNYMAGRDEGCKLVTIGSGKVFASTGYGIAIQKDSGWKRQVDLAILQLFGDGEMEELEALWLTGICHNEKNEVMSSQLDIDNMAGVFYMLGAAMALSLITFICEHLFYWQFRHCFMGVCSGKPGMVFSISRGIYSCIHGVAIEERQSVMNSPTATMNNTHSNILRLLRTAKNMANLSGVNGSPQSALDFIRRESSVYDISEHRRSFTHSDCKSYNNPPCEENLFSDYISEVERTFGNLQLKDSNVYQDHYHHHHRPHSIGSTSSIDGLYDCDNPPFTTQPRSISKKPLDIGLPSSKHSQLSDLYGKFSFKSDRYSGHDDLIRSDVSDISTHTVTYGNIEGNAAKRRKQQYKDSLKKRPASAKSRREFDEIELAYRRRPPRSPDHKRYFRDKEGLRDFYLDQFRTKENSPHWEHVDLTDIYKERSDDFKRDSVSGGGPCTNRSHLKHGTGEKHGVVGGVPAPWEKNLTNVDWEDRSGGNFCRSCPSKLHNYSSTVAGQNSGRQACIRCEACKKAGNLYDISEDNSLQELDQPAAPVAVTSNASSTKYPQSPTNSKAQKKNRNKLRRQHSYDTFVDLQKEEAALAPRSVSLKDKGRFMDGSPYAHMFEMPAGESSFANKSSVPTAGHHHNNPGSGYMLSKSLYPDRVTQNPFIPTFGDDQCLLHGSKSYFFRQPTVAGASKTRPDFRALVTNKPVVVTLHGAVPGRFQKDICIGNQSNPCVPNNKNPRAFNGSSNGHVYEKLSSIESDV

## COc1ccc(CCN2CCN(CCCc3ccccc3)CC2)cc1OC [SA-4503]
GluN1/2B [1]
  Ki: > 100000 nM
GluN1/2B [2]
  Ki: 51 ± 13 nM

## C[C@@H]([C@@H](O)c1ccc(O)cc1)N1CCC(O)(c2ccccc2)CC1 [CP-101,606]
σ1R [3]; administered dose occupying 50% of σ1Rs, [18F]fluspidine PET
  D50 (σ1R): 4.9 µmol/kg
σ1R [3]; doses 0.05–15 mg/kg
  blockade of [18F]fluspidine brain uptake: dose-dependent blockade
σ1R [3]; dose 0.05 mg/kg
  %RO calculated: 3.72%
  %RO predicted: 2.43%
σ1R [3]; dose 3 mg/kg
  %RO calculated: 61.9%
  %RO predicted: 59.2%
σ1R [3]; dose 7 mg/kg
  %RO calculated: 71.2%
  %RO predicted: 77.1%
σ1R [3]; dose 15 mg/kg
  %RO calculated: 91.2%
  %RO predicted: 87.8%
GluN1/2B [4]; reported literature value
  Ki: 16 nM
σR
  Ki: 60 nM
GluN1/2B [5]
  D50 (GluN1/2B): 8.1 µmol/kg
σ1R [6]
  Ki: 94 ± 6 nM

## Oc1ccc2c(c1)CCN(CCCCc1ccccc1F)CC2O (stereo not shown) [OF-NB1]
GluN1/2B [4]; ref 22 (Ahmed et al. 2021)
  Ki: 10.4 ± 4.7 nM
σ1R [7]; ref 22 (Ahmed et al. 2021)
  Ki: 410 nM
[8]
  log D7.4: 2.05 ± 0.08

## CC(C(O)c1ccc(O)cc1)N1CCC(Cc2ccccc2)CC1 (stereo not shown) [[^3H]Ifenprodil]
GluN1/2B [4]; ref 17 (Alarcon et al. 2008)
  Ki: 11 nM
σ1R [7]; ref 18 (Hashimoto 2015)
  Ki: 13 nM
σ2R
  Ki: 1.89 nM
